# From ChEMBL document CHEMBL1130301, “Constrained -alanine based GpIIb/IIIa antagonists” (Bioorg Med Chem Lett, 1997)
# Where a SMILES comes first, the peptide text is derived from it.
# Target: Integrin alpha-IIb/beta-3 (Homo sapiens, UniProt P05106+P08514)
# Assay: Inhibition of fibrinogen binding to activated human platelets
# Assay type: functional
# Integrin alpha-IIb/beta-3, sequence (P05106 27-788 limits assumed): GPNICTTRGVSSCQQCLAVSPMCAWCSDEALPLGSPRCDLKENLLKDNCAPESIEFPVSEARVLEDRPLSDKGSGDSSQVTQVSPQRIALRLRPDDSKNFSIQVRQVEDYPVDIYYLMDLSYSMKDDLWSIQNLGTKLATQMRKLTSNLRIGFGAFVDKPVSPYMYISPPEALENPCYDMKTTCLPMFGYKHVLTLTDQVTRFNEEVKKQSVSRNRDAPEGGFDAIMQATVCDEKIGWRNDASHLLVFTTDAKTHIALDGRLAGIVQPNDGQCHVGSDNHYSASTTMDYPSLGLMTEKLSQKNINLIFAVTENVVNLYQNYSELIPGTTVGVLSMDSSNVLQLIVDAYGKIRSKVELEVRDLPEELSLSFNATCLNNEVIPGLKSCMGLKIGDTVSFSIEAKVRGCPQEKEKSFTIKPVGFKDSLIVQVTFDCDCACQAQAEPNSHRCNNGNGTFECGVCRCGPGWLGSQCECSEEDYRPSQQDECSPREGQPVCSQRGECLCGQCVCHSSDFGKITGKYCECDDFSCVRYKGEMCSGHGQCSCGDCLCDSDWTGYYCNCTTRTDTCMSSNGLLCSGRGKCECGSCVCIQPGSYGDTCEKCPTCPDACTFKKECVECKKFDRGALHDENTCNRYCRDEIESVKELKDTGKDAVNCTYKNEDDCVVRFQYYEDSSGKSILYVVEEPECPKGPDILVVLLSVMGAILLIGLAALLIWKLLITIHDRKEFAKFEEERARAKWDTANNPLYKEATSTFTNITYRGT
# Integrin alpha-IIb/beta-3, sequence (P08514 32-887 limits assumed): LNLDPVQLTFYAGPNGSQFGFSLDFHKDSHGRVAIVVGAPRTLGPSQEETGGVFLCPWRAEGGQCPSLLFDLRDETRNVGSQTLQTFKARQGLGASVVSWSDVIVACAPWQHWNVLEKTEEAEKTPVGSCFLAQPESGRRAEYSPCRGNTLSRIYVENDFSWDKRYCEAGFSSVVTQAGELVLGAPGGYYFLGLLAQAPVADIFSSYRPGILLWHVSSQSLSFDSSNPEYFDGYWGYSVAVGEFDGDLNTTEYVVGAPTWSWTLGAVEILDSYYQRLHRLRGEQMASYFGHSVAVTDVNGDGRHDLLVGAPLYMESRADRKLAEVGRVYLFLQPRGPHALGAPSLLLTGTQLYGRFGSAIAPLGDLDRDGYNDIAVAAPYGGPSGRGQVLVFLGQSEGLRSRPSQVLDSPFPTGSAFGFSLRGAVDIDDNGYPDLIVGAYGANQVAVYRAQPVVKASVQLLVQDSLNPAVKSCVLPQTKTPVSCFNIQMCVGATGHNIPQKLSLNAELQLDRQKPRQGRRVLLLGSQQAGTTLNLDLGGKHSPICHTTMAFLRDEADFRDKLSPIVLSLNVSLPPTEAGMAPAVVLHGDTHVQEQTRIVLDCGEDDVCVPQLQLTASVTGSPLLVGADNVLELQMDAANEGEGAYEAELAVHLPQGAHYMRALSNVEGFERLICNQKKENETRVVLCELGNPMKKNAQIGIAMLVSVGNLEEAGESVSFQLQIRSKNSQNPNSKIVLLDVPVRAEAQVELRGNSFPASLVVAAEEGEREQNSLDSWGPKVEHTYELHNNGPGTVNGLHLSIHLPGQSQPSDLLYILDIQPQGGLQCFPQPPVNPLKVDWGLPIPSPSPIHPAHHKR
# Integrin alpha-IIb/beta-3, sequence (P08514 891-1039 limits assumed): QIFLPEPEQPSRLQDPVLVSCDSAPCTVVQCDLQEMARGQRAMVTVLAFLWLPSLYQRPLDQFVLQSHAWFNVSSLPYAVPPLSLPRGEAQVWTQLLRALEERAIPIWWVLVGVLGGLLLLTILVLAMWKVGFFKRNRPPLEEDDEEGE
row,IC50 [nM],SMILES
1,120,CC(C)[C@H](NC(=O)[C@H](CC(=O)O)NC(=O)[C@H]1CCCN(C(=O)/C=C/c2ccc(NC(=N)N)cc2)C1)C(=O)O
2,240,CC(C)[C@H](NC(=O)[C@H](CC(=O)O)NC(=O)CCNC(=O)/C=C/c1ccc(NC(=N)N)cc1)C(=O)O
3,110,CC(C)[C@H](NC(=O)[C@H](CC(=O)O)NC(=O)C[C@H]1CCN1C(=O)/C=C/c1ccc(NC(=N)N)cc1)C(=O)O
4,200,CC(C)[C@H](NC(=O)[C@H](CC(=O)O)NC(=O)C[C@@H]1CCCCN1C(=O)/C=C/c1ccc(NC(=N)N)cc1)C(=O)O
5,> 20000,CC(C)[C@H](NC(=O)[C@H](CC(=O)O)NC(=O)C1CN(C(=O)/C=C/c2ccc(NC(=N)N)cc2)C1)C(=O)O
6,1500,CC(C)[C@H](NC(=O)[C@H](CC(=O)O)NC(=O)C[C@@H]1CCCN1C(=O)/C=C/c1ccc(NC(=N)N)cc1)C(=O)O
7,5000,CC(C)[C@H](NC(=O)[C@H](CC(=O)O)NC(=O)CNC(=O)/C=C/c1ccc(NC(=N)N)cc1)C(=O)O
8,6000,CC(C)[C@H](NC(=O)[C@H](CC(=O)O)NC(=O)CNC(=O)[C@@H](N)CCCN=C(N)N)C(=O)O (H-RGDV-OH)

# Second part, the compound before the results:
row,SMILES,IC50 [nM]
1,CC(C)[C@H](NC(=O)[C@H](CC(=O)O)NC(=O)[C@@H]1CCCN(C(=O)/C=C/c2ccc(NC(=N)N)cc2)C1)C(=O)O,70
2,CC(C)[C@H](NC(=O)[C@H](CC(=O)O)NC(=O)C[C@H]1CCCCN1C(=O)/C=C/c1ccc(NC(=N)N)cc1)C(=O)O,> 20000
3,CC(C)[C@H](NC(=O)[C@H](CC(=O)O)NC(=O)C[C@H]1CCCN1C(=O)/C=C/c1ccc(NC(=N)N)cc1)C(=O)O,26000
4,CC(C)[C@H](NC(=O)[C@H](CC(=O)O)NC(=O)[C@@H]1CCN(C(=O)/C=C/c2ccc(NC(=N)N)cc2)C1)C(=O)O,3
5,CC(C)[C@H](NC(=O)[C@H](CC(=O)O)NC(=O)CCN(C)C(=O)/C=C/c1ccc(NC(=N)N)cc1)C(=O)O,200
6,CCN(CCC(=O)N[C@@H](CC(=O)O)C(=O)N[C@H](C(=O)O)C(C)C)C(=O)/C=C/c1ccc(NC(=N)N)cc1,220
7,CC(C)[C@H](NC(=O)[C@H](CC(=O)O)NC(=O)CCCNC(=O)/C=C/c1ccc(NC(=N)N)cc1)C(=O)O,70000
8,CC(C)[C@H](NC(=O)[C@H](CC(=O)O)NC(=O)[C@H]1CCN(C(=O)/C=C/c2ccc(NC(=N)N)cc2)C1)C(=O)O,3000
